{"source": "patent US20230338539A1", "about": "“METHOD OF TREATING DIFFICULT TO ACCESS TUMORS WITH PHOTOACTIVATED CANCER THERAPY” (priority 2020, published 2023)", "key": {"[1]": {"tested_on": "syngeneic 4T1-HER2 tumors", "test": "In-vivo X-PACT trial on syngeneic tumors (FIG. 6)", "set-up": "species or system BALB/c mice", "details": "psoralen (AMT) alone with x-ray, phosphors alone with x-ray; relative to in-vitro expectation", "experimental": "There were 6-8 mice per arm, and the study was repeated a second time, yielding effective sample sizes of 12-16. […] In the separate psoralen and phosphor control arms (blue and red respectively), 5 μM psoralen (AMT) and 100 μg of phosphor where applied. A consistent x-ray irradiation technique was used for all arms (except saline control) which was 2 Gy delivered at 75 kVp by 30 mA in 3 minutes."}, "[2]": {"tested_on": "CT2A (murine malignant glioma)", "test": "UV light activated psoralen, Cell-Titer-Glo Luminescence Cell Viability Assay (FIG. 3A)", "format": "cell-based", "details": "psoralen 40 μM; UV light 0, 0.25, 0.5, 1.0 J/cm^2", "experimental": "(§1) Metabolic cell viability was also assessed visually using Methylene blue staining and ATP-induced Luminescence imaging (Cell-Titer-Glo® Luminescence Cell Viability Assay). The luminescence imaging permitted investigation of the cytotoxicity of psoralen activated directly with a UV lamp, and in the absence of phosphors and x-ray radiation. […] N=4 for each cell line at each UV light condition (0, 0.25, 0.5, 1.0 J/cm^2). The psoralen concentration was 40 μM."}, "[3]": {"tested_on": "4T1", "test": "UV light activated psoralen, Cell-Titer-Glo Luminescence Cell Viability Assay (FIG. 3A)", "format": "cell-based, murine", "details": "psoralen 40 μM; UV light 0, 0.25, 0.5, 1.0 J/cm^2", "experimental": "as §1"}, "[4]": {"tested_on": "KP158B (sarcoma)", "test": "UV light activated psoralen, Cell-Titer-Glo Luminescence Cell Viability Assay (FIG. 3A)", "format": "cell-based, murine", "details": "psoralen 40 μM; UV light 0, 0.25, 0.5, 1.0 J/cm^2", "experimental": "as §1"}, "[5]": {"tested_on": "4T1-HER2 cells", "details": "multi-variable regression on 36 independent irradiation experiments", "description": "Guava Annexin V flow cell cytometry was used to quantify cytotoxicity in 3 murine tumor cell lines (breast-4T1, glioma-CT2A, and sarcoma KP15B8). […] Cells were incubated in appropriate growing media and buffers before being trypsinized and plated evenly onto twelve (12) well plates for 24 hours. […] The plates were then irradiated with x-rays by placing the plate at a known distance from the x-ray source (e.g., 50 cm). After irradiation the cells were incubated on the plate for 48 hours prior to performing flow cytometry. For compatibility with 96-well Guava Nexin® assay, the remaining cells were again trypsinized (after the 48 hour incubation) and plated onto a 96-well plate. […]\nCells plated in 12-well plates, where individual wells in each plate may receive different experimental conditions (e.g. psoralen concentration), but the same x-ray dose (i.e. all wells in a given plate receive the same x-ray dose). The first metric is metabolically viable cell count (or cell viability) determined from the number of whole cells per well as determined using forward scattering (FSC). […] (All wells on a given plate receive the same dose.) The second metric is Annexin V (+) signal, which is the fraction of the metabolically viable cells which expressed a positive Annexin V signal as determined by flow cell cytometry, and include any cells advancing toward early or late apoptotic cell death. […]"}}}
{"smiles": "O=c1ccc2cc3ccoc3cc2o1", "note": "[psoralen]", "values": [{"measurement": "component effect in control arms", "setting": "[1]", "value": "slightly higher component effect"}, {"measurement": "effect of UV light activated psoralen on viable cells", "setting": "[2]", "value": "reduce viable cells"}, {"measurement": "effect of UV light activated psoralen on viable cells", "setting": "[3]", "value": "reduce viable cells"}, {"measurement": "effect of UV light activated psoralen on viable cells", "setting": "[4]", "value": "reduce viable cells"}, {"measurement": "effect on cytotoxicity (Annexin V signal) of component alone", "setting": "[5]", "value": "neither psoralen nor phosphor alone had a strong effect on cytotoxicity"}]}
